By fraction unbound is commonly meant free concentration divided by total concentration. A higher fraction unbound goes with much free substance.

Where two headings read alike, the source gives them in different places.

Experimental findings from patent EP4711361A1, “NITROGEN-CONTAINING HETEROCYCLIC COMPOUND AND USE THEREOF” (Jiangsu Deyuan Pharmaceutical Co.,Ltd., priority 2023, dated 2024) are described below.

For one data set, the target named is T1, human CYP11B2 (Homo sapiens, UniProt P19099).
T1 construct: expressed in transfected cells; host or cells: human renal leiomyoma G402 cells (monoclonal)
T1 sequence (P19099 25-503): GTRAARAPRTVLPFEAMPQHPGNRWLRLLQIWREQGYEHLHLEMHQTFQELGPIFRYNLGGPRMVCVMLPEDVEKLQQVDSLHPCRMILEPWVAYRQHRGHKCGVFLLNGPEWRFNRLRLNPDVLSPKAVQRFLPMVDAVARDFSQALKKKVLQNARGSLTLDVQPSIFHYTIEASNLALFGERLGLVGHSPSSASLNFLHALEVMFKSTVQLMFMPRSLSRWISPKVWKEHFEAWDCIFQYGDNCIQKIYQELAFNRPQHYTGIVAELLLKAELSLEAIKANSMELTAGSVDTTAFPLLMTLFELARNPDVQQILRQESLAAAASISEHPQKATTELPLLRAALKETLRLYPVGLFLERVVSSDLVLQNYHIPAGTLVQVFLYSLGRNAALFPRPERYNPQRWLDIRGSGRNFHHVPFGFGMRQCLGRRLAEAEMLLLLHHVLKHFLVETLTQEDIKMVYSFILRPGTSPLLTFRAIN
The data set can be described thus: In vitro activity assay of monoclonal cells overexpressing human CYP11B2. The following applies: G402 cells overexpressing human CYP11B2; 1 µM 11-deoxycorticosterone, 16 hours; aldosterone by LC-MS/MS. The format is cell-based. The procedure:
The human renal leiomyoma G402 cell line overexpressing human CYP11B2 was selected to serve as a compound activity screening system. Table 1: Cell and reagent information
2) Compound details: The test compound was prepared as a 10 µM working concentration using DMSO. 3) Experimental procedure
Day 1: Cells were digested, and human renal leiomyoma G402 cells overexpressing human CYP11B2 were resuspended to 1×10^5 cells/mL, with 100 µL seeded into a 96-well plate.
(§1) Day 3: The cell supernatant was collected and added to 200 µL of a methanol solution containing internal standards (internal standards: 35 ng/mL ketoprofen or 7.5 ng/mL carbamazepine or 5 ng/mL diphenhydramine or 10 ng/mL tolbutamide). The mixture was vortexed and centrifuged (4000×g, 4°C, 5 minutes). Then, 100 µL of the supernatant was taken and mixed with 100 µL of pure water.
Ratio = Aldosterone peak area/Internal standard peak area [formula] Control activity% = (Ratiotestcompound/RatioDMSO) × 100% [formula]
(§2) "Ratio test compound" represents the Ratio values at different concentrations of the test compound.
(§3) "Ratio DMSO" represents the Ratio value without the addition of the test compound. • X = Log (compound concentration) • Y = Control activity%
The IC50 of the test compound was determined by fitting to a nonlinear regression equation using XLfit 5.5.0. Table 3: Results for in vitro activity assay of monoclonal cells overexpressing human CYP11B2

For the next data set, the target named is T2, human CYP11B1 (Homo sapiens, UniProt P15538).
T2 construct: expressed in transfected cells; host or cells: human renal leiomyoma G402 cells (monoclonal)
T2 sequence (P15538 25-503): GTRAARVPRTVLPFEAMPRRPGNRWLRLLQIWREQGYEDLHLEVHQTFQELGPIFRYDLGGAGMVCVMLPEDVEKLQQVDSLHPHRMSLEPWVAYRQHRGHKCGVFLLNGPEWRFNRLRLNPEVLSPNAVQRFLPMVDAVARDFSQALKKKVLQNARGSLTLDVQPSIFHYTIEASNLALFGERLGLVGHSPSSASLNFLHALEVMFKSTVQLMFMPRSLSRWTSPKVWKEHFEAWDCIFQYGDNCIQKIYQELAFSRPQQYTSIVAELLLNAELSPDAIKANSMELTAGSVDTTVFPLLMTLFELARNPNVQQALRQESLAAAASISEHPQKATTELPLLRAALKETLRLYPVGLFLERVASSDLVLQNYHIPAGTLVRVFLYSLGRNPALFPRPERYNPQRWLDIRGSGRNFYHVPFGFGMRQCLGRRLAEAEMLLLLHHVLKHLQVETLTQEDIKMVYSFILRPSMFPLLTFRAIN
The data set can be described thus: In vitro activity assay of monoclonal cells overexpressing human CYP11B1. The format is cell-based. The following applies: G402 cells overexpressing human CYP11B1; 1 µM 11-deoxycortisol, 16 hours; cortisol by LC-MS/MS. The method, then: The human renal leiomyoma G402 cell line overexpressing human CYP11B1 was selected to serve as a compound selectivity screening system.
Day 1: Cells were digested, and human renal leiomyoma G402 cells overexpressing CYP11B1 were resuspended to 1×10^5 cells/mL, with 100 µL seeded into a 96-well plate.
as §1
Ratio = Cortisol peak area/Internal standard peak area [formula] Control activity% = (Ratiotestcompound/RatioDMSO) × 100% [formula]
as §2, §3
The IC50 of the test compound was determined by fitting to a nonlinear regression equation using XLfit 5.5.0. Table 4: Results for in vitro activity assay of monoclonal cells overexpressing human CYP11B1

A further data set deals with T3, CYP1A2 (Homo sapiens, UniProt P05177).
T3 construct: Mixed human liver microsomes (HLM) were purchased from Corning Inc; tissue Corning Inc; host or cells: pooled (mixed) human liver microsomes
The data set can be described thus: Human liver microsome CYP inhibition assay, CYP1A2. The format is in vitro ADME. The procedure:
(§4) Experimental objective: To evaluate the inhibitory activity of the test substance on human liver microsomal cytochrome P450 isoenzymes (CYP1A2, CYP2C9, CYP2C19, CYP2D6, CYP3A4) using a 5-in-1 probe substrate for CYP isoenzymes.
(§5) Mixed human liver microsomes (HLM) were purchased from Corning Inc. (Steuben, New York, USA) and stored at temperatures below -70°C prior to use.
(§6) The working solution of the test substance, which had been diluted to a series of concentrations, was added to an incubation system containing human liver microsomes, probe substrates, and auxiliary factors of the circulatory system. A control containing solvent but no test substance served as an enzyme activity control (100%). The concentration of metabolites produced from probe substrates in the samples was determined using Liquid Chromatography-Tandem Mass Spectrometry (LC-MS/MS) method. Non-linear regression analysis of the average percentage activity of the test substance against its concentration was conducted using SigmaPlot (V.11). The IC50 values were calculated using a three-parameter or four-parameter inverse log equation. Table 10: Cytochrome P450 isoenzyme half maximal inhibitory concentration IC50 (µM)
For orientation: Liver microsomes are a subcellular fraction often used to study metabolism.

Another data set deals with T4, CYP2C9 (Homo sapiens, UniProt P11712).
T4 construct: Mixed human liver microsomes (HLM) were purchased from Corning Inc; tissue Corning Inc; host or cells: pooled (mixed) human liver microsomes
The data set can be described thus: Human liver microsome CYP inhibition assay, CYP2C9. The format is in vitro ADME. The procedure: as §4, §5, §6

Another data set addresses T5, CYP2C19 (Homo sapiens, UniProt P33261).
T5 construct: Mixed human liver microsomes (HLM) were purchased from Corning Inc; tissue Corning Inc; host or cells: pooled (mixed) human liver microsomes
The data set can be described thus: Human liver microsome CYP inhibition assay, CYP2C19. The format is in vitro ADME. The procedure: as §4, §5, §6

The target in a further data set is T6, CYP2D6 (Homo sapiens, UniProt P10635).
T6 construct: Mixed human liver microsomes (HLM) were purchased from Corning Inc; tissue Corning Inc; host or cells: pooled (mixed) human liver microsomes
The data set can be described thus: Human liver microsome CYP inhibition assay, CYP2D6. In kind it is in vitro ADME. The procedure: as §4, §5, §6

The target in a further data set is T7, CYP3A4 (Homo sapiens, UniProt P08684).
T7 construct: Mixed human liver microsomes (HLM) were purchased from Corning Inc; tissue Corning Inc; host or cells: pooled (mixed) human liver microsomes
The data set can be described thus: Human liver microsome CYP inhibition assay, CYP3A4. The format is in vitro ADME. The procedure: as §4, §5, §6

The next data set in a line: in vitro. Conditions: rat, plasma.

T6 sequence (P10635 whole entry): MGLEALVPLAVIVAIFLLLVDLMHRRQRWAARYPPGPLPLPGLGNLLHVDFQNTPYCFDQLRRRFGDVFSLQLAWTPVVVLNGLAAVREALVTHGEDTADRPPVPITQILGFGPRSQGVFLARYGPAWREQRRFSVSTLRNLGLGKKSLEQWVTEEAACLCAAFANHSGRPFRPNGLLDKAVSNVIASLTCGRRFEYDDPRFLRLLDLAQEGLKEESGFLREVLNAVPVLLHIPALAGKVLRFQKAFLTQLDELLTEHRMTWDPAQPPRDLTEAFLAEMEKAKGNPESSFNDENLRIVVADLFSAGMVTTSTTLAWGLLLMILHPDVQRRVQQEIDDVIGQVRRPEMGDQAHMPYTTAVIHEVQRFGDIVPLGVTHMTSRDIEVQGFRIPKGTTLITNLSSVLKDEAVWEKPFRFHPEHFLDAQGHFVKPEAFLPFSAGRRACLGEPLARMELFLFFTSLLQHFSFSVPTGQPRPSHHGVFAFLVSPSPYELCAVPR
T3 sequence (P05177 whole entry): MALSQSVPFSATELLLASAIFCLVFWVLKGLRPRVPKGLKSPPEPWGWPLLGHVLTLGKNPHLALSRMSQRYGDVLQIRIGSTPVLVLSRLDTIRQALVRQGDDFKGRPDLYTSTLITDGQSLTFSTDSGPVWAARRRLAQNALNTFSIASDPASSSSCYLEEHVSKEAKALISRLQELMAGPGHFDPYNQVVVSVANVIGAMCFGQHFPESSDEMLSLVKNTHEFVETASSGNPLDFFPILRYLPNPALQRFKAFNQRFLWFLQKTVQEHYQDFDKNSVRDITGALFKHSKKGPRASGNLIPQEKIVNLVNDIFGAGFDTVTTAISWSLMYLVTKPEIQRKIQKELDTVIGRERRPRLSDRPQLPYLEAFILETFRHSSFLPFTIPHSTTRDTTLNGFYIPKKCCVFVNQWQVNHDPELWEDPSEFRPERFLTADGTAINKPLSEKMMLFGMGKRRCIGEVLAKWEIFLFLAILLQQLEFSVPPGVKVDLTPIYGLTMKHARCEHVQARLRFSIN
T7 sequence (P08684 whole entry): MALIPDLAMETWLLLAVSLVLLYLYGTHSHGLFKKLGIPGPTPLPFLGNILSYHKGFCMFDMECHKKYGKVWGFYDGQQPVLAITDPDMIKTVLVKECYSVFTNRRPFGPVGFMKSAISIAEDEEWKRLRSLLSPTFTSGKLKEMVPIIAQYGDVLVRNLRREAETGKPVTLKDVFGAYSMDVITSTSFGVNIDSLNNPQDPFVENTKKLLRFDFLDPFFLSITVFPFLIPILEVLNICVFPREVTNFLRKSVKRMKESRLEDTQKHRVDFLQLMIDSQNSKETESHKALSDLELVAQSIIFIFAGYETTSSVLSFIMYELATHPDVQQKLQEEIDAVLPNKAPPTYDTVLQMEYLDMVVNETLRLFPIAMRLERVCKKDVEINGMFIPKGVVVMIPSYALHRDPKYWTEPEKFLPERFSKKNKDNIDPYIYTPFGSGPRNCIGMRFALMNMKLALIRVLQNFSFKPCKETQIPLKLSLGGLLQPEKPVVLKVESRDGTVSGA
T5 sequence (P33261 whole entry): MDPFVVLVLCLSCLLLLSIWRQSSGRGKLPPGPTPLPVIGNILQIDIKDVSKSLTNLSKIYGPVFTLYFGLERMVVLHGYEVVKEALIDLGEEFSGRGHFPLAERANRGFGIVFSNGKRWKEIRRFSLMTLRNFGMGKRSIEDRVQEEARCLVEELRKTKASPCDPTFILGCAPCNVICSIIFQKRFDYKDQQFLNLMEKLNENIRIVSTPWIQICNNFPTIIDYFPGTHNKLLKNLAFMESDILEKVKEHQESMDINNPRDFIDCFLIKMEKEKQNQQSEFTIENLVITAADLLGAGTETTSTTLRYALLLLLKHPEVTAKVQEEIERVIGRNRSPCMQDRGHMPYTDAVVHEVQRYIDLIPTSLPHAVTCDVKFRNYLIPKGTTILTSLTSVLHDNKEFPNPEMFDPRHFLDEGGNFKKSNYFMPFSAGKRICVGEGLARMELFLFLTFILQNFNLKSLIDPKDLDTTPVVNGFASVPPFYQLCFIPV
T4 sequence (P11712 whole entry): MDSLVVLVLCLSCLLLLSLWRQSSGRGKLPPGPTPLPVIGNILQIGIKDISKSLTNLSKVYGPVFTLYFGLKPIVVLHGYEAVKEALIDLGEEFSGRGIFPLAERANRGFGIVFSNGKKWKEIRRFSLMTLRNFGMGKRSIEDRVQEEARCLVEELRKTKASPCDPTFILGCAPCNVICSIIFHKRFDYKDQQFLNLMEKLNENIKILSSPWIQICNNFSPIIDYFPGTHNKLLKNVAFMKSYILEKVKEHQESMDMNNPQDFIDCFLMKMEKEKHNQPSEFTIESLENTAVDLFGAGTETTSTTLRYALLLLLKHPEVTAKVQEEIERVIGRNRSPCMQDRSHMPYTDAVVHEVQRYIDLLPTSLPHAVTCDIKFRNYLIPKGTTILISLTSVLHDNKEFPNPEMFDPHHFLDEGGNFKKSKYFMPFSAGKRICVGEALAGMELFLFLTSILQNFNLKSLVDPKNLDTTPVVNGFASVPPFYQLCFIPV

Regarding `CCC(=O)N[C@@H]1CCCc2c(-c3ccc4c(ccc(=O)n4C)c3)cncc21` (single isomer, unassigned) [Compound 001], the IC50 is 0.012 µM against human CYP11B2; 2.47 µM on human CYP11B1; > 50 µM on CYP1A2 (mixed human liver microsomes, 5-in-1 probe substrate, read-out: Cytochrome P450 isoenzyme half maximal inhibitory concentration IC50 (µM) CYP1A2); > 50 µM at CYP2C9 (mixed human liver microsomes, 5-in-1 probe substrate, read-out: Cytochrome P450 isoenzyme half maximal inhibitory concentration IC50 (µM) CYP2C9); > 50 µM at CYP2C19 (mixed human liver microsomes, 5-in-1 probe substrate, read-out: Cytochrome P450 isoenzyme half maximal inhibitory concentration IC50 (µM) CYP2C19); > 50 µM on CYP2D6 (mixed human liver microsomes, 5-in-1 probe substrate, read-out: Cytochrome P450 isoenzyme half maximal inhibitory concentration IC50 (µM) CYP2D6). Moreover, the IC50 at CYP3A4 (mixed human liver microsomes, 5-in-1 probe substrate, read-out: Cytochrome P450 isoenzyme half maximal inhibitory concentration IC50 (µM) CYP3A4) is > 50 µM.
Take `CCC(=O)NC1CCCc2c(-c3cc4c(s3)N(C)C(=O)CC4)cncc21` (single isomer, unassigned) [Compound 017]: the IC50 at human CYP11B2 was 0.00209 µM; on human CYP11B1, 0.322 µM; on CYP1A2, > 50 µM; against CYP2C9, 45.1 µM; at CYP2C19, > 50 µM; at CYP2D6, > 50 µM. Besides, on CYP3A4, the IC50 was > 50 µM. For the same molecule, the fraction unbound at 4 h, 2 µM in “in vitro” was 0.051.
Regarding `CCC(=O)NC1CCCc2c(-c3cc4ccc(=O)n(C)c4s3)cncc21` (single isomer, unassigned) [Compound 023], the IC50 was 0.0125 µM against human CYP11B2; 1.74 µM at human CYP11B1; > 50 µM on CYP1A2; > 50 µM at CYP2C9; > 50 µM against CYP2C19; > 50 µM against CYP2D6. Also, the IC50 on CYP3A4 is > 50 µM. This molecule gave a fraction unbound at 4 h, 2 µM in the data set “in vitro” of 0.096.
